From patent US12728099B2, “Formulation to deliver lipophilic active ingredients” (priority 2020, dated 2026)
Values after ≈ are worked out from the molar mass of the structure shown. Where two headings read alike, the source gives them in different places.

Legend:
[1] = Morphology by scanning electron / optical microscopy; assay type: physicochemical; conditions: SEM or optical microscope
Experimental: Morphologically, scanning electron microscopy (SEM) analyses of both forms were performed.

[2] = Dissolution rate in 1% aqueous sodium cholate solution (HPLC); assay type: physicochemical; conditions: 1% w/v sodium cholate, total 30 μg/mL
Experimental: Chromatogram recording was performed at 210 nm.

[3] = Particle size by light scattering; assay type: physicochemical
Experimental: The nanostructured PEA suspension obtained according to Example 1 was analyzed by light scattering to assess the size of the nanoparticles.

[4] = cited from earlier work
[5] = Solubility in different dissolution media (HPLC); conditions: 25 °C, thermodynamic from solid

Dissolved PEA (dissolution rate) ([2]; 30 min): 3.31 ± 2.30 µg/mL
Dissolved PEA (dissolution rate) ([2]; 1 hour): 4.56 ± 1.02 µg/mL
Dissolved PEA (dissolution rate) ([2]; 2 hours): 6.15 ± 1.22 µg/mL
Dissolved PEA (dissolution rate) ([2]; 4 hours): 8.61 ± 0.68 µg/mL
Dissolved PEA (dissolution rate) ([2]; 6 hours): 9.31 ± 0.71 µg/mL
Size (nm ± SD) [3]: Macro and microscopic flakes
solubility at 24 h ([5]; demineralized water, water): < 0.1 µg/mL
solubility at 24 h ([5]; phosphate buffer, pH 7.4, aqueous buffer): 0.64 ± 0.05 µg/mL (≈ 2.14 µM)
solubility at 24 h ([5]; simulated intestinal fluid, pH 6.8, fassgf or other biorelevant): 0.22 ± 0.03 µg/mL (≈ 0.735 µM)
solubility at 24 h ([5]; simulated pulmonary fluid, pH 7.4, fassgf or other biorelevant): 0.8 ± 0.12 µg/mL (≈ 2.67 µM)
Compound: CCCCCCCCCCCCCCCC(=O)NCCO [Raw PEA, Palmitoylethanolamide]
Morphology / obtainment of nanostructures [1]: irregular macroscopic agglomerates (a few tens of microns)
Solubility ([4]; methanol, ethanol, and isopropyl alcohol): poorly soluble
Solubility ([4]; water, oils, and most common organic solvents): practically insoluble
